From patent US20240368668A1, “SUBSTRATES AND BIOMARKERS OF ADAMTS7” (The Broad Institute, Inc., priority 2021, published 2024)
Square brackets hold non-standard residues; d marks the D form. Ends that are not written are not given here.

Test system: mouse ADAMTS7
Test: TMT10 TAILS N-terminomics, HUVEC experiment (process replicates, trypsin/AspN digest)
Format: cell-based, human
Settings: for logFC.mWT.over.mEQ: HUVEC TAILS HC, log fold change of N-terminal peptide, Ad-mADAMTS7 WT over EQ
Method in brief: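 Full-length mouse ADAMTS7 (WT or E373Q mutant, C-terminal 3xFLAG) or luciferase was transduced via adenovirus, 50 MOI, into HCA-SMC (SMC1, SMC2) or HUVEC. SMC1: pooled media, technical triplicates 400 ug; SMC2: process triplicates 300 ug; HUVEC: process triplicates 200 ug, bFGF2 10 ng/ml.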

Substance	logFC.mWT.over.mEQ	HUVEC logFC.mWT.over.mEQ (HUVEC experiment, log fold change, mouse ADAMTS7 WT over EQ)
ECM1_108 (QEAVPLQK; listed as Homo sapiens)	2.12	–
EFEMP1_125_ (VAGPEMQTGR; listed as Homo sapiens)	2.45	–
ERAP2_718 (ISENLKR; listed as Homo sapiens)	4.41	–
EWSR1_87 (YSQPVQGYGTGAY; listed as Homo sapiens)	1.15	–
FN1_34 ([code q]QMVQPQSPVAVSQSKPGCY; not fully specified (residue 3); listed as Homo sapiens)	1.43	–
FN1_35 ([code q]MVQPQSPVAVSQSKPGCY; not fully specified (residue 2); listed as Homo sapiens)	2.58	–
FN1_293 (VYQPQPHPQPPPYGHCVT; listed as Homo sapiens)	1.24	–
FN1_607 (SSSGPVEVFIT; listed as Homo sapiens)	2.71	2.04
FN1_1144 (TPGVEYVYTIQVLR; listed as Homo sapiens)	1.62	–
FN1_1780 (LQGLRPGSEYTVSVVALH; listed as Homo sapiens)	2.27	–
FN1_1805 (LIGTQSTAIPAPT; listed as Homo sapiens)	1.42	–
FN1_2113 (FVTHPGY; listed as Homo sapiens)	1.67	–
FSTL1_290 (LQKHQETA; listed as Homo sapiens)	2.57	–
LOX_125 (FQAGYSTSR; listed as Homo sapiens)	3.58	–
